Where two headings read alike, the source gives them in different places.

Assay [1] relates to Beet Armyworm (Spodoptera exigua, LAPHEG). The assay can be described thus: Bioassays on Beet Armyworm (BAW), 128-well diet tray assay. Format: in vivo. Particulars: Spodoptera exigua. In short, it runs like this: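 Second-instar larvae, one to five per well, were placed on artificial diet surface-treated with 50 μg/cm^2 compound in 90:10 acetone-water, eight wells per treatment. Trays were held 5–7 days at 25 °C, 14:10 light-dark. Percent mortality per well was averaged over eight wells.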

For assay [2], the system named is Cabbage Looper (Trichoplusia ni, TRIPNI). The assay can be described thus: Bioassays on Cabbage Looper (CL), 128-well diet tray assay. Type of assay: in vivo. Particulars: Trichoplusia ni. In short, it runs like this:
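Second-instar larvae (1–5 per well) placed on artificial diet surface-treated with 50 μg/cm^2 test molecule applied in 90:10 acetone-water and dried. Held at 25° C., 14:10 light-dark, for five to seven days. Percent mortality scored per well and averaged over eight wells.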

Where [3] appears, read: Beet Armyworm, Table ABC / ABC-DP rating, read-out: BAW rating.
[4] abbreviates: Cabbage Looper, Table ABC / ABC-DP rating, read-out: CL rating.
Where [5] appears, read: Beet Armyworm, rating class, read-out: BAW.
Setting [6] is: Cabbage Looper, rating class, read-out: CL.
Where [7] appears, read: Table ABC: Biological Results, species BAW, read-out: BAW.
Setting [8] is: Table ABC: Biological Results, species CL, read-out: CL.

As for `CN(NC(=O)c1cc(NC(=O)[C@H]2[C@H](c3cc(Cl)cc(Cl)c3)C2(Cl)Cl)ccc1Cl)C(=O)CC(F)(F)F` (relative stereo) [F2533, trans-2,2-Dichloro-N-(4-chloro-3-(2-methyl-2-(3,3,3-trifluoropropanoyl)hydrazine-1-carbonyl)phenyl)-3-(3,5-dichlorophenyl)cyclopropane-1-carboxamide], the pest or weed control at 50 µg/cm2 in assay [1] (setting [3]) and in assay [2] (setting [4]) was 50 to 100% in each case.
Turning to `O=C(Nc1ccc(F)c(NC(=O)[C@@H]2CCCN2)c1F)c1cc(NC(=O)[C@H]2[C@H](c3ccc(Cl)c(Cl)c3)C2(Cl)Cl)ccc1Cl` [F1664, (S)—N-(3-(2-chloro-5-((1R,3R)-2,2-dichloro-3-(3,4-dichlorophenyl)cyclopropane-1-carboxamido)benzamido)-2,6-difluorophenyl)pyrrolidine-2-carboxamide], the pest or weed control at 50 µg/cm2 in assay [1] (setting [5]) and in assay [2] (setting [6]) was 50 to 100% each time.
For `Nc1c(F)ccc(NC(=O)c2cc(NC(=O)[C@H]3[C@H](c4cc(Cl)cc(Cl)c4)C3(Cl)Cl)cc(F)c2Cl)c1F` [F1324, N-(3-Amino-2,4-difluorophenyl)-2-chloro-5-((1R,3R)-2,2-dichloro-3-(3,5-dichlorophenyl)cyclopropane-1-carboxamido)-3-fluorobenzamide], the pest or weed control at 50 µg/cm2 in assay [1] (setting [7]) and in assay [2] (setting [8]) was 50 to 100% in each case.
For the molecule `O=C(NCCCCl)c1cc(NC(=O)[C@H]2[C@H](c3ccc(F)c(Cl)c3)C2(Cl)Cl)cc(F)c1F` (relative stereo) [F2052, trans-N-(3-Chloropropyl)-5-(2,2-dichloro-3-(3-chloro-4-fluorophenyl)cyclopropane-1-carboxamido)-2,3-difluorobenzamide], the pest or weed control at 50 µg/cm2 in assay [1] (setting [3]) and in assay [2] (setting [4]) was 50 to 100% throughout.
For the molecule `CCO[C@@H](C)C(=O)Nc1c(F)ccc(NC(=O)c2cc(NC(=O)[C@H]3[C@H](c4ccc(Cl)c(Cl)c4)C3(Cl)Cl)ccc2Cl)c1F` [F1733, 2-Chloro-5-((1R,3R)-2,2-dichloro-3-(3,4-dichlorophenyl)cyclopropane-1-carboxamido)-N-(3-((S)-2-ethoxypropanamido)-2,4-difluorophenyl)benzamide], the pest or weed control at 50 µg/cm2 in assay [1] (setting [5]) and in assay [2] (setting [6]) was 50 to 100% each time.
What is called mortality is the share of the test organisms that died. For `O=C(NN=Cc1nccs1)c1cc(NC(=O)[C@H]2[C@H](c3cc(Cl)cc(Cl)c3)C2(Cl)Cl)ccc1Cl` (relative stereo) [F3006, trans-2,2-Dichloro-N-(4-chloro-3-(2-(thiazol-2-ylmethylene)hydrazine-1-carbonyl)phenyl)-3-(3,5-dichlorophenyl)cyclopropane-1-carboxamide], the mortality at 50 µg/cm2 fell in the range of 50 to 100% in assay [1] (168 h, second instar larvae, 50 μg/cm^2 of test molecule on artificial diet, 25° C., five to seven days, average of eight wells, read-out: BAW % Control (or Mortality) rating) and 50 to 100% in assay [2] (168 h, second instar larvae, 50 μg/cm^2 of test molecule on artificial diet, 25° C., five to seven days, average of eight wells, read-out: CL % Control (or Mortality) rating). The pest or weed control at 50 µg/cm2 in assay [1] (setting [3]) and in assay [2] (setting [4]) was 50 to 100% in each case.
For `O=C(Nc1c(F)ccc([N+](=O)[O-])c1F)c1cc(NC(=O)[C@H]2[C@H](c3cc(Cl)c(Cl)c(Cl)c3)C2(Cl)Cl)cc(F)c1F` [F1765, 5-((1R,3R)-2,2-Dichloro-3-(3,4,5-trichlorophenyl)cyclopropane-1-carboxamido)-N-(2,6-difluoro-3-nitrophenyl)-2,3-difluorobenzamide], the pest or weed control at 50 µg/cm2 in assay [1] (setting [5]) and in assay [2] (setting [6]) was 50 to 100% each time.
For the molecule `C=C(F)c1cc(F)cc(F)c1NC(=O)c1cc(NC(=O)[C@H]2[C@H](c3cc(Cl)cc(Cl)c3)C2(Cl)Cl)ccc1Cl` (relative stereo) [F1322, trans-2-Chloro-5-(2,2-dichloro-3-(3,5-dichlorophenyl)cyclopropane-1-carboxamido)-N-(2,4-difluoro-6-(1-fluorovinyl)phenyl)benzamide], the pest or weed control at 50 µg/cm2 in assay [1] (setting [7]) and in assay [2] (setting [8]) was 50 to 100% each time.
On to `O=C(Nc1ccc(F)c(NC(=O)C(F)(F)C(F)F)c1F)c1cc(NC(=O)[C@H]2[C@H](c3cccc(C(F)(F)F)c3)C2(Cl)Cl)ccc1Cl` [F1677, 2-Chloro-5-((1R,3R)-2,2-dichloro-3-(3-(trifluoromethyl)phenyl)cyclopropane-1-carboxamido)-N-(2,4-difluoro-3-(2,2,3,3-tetrafluoropropanamido)phenyl)benzamide], for which the pest or weed control at 50 µg/cm2 in assay [1] (setting [5]) and in assay [2] (setting [6]) was 50 to 100% throughout.
On to `O=C(Nc1c(F)ccc(NC(=O)c2cc(NC(=O)[C@H]3[C@H](c4ccc(F)c(C(F)(F)F)c4)C3(Cl)Cl)ccc2Cl)c1F)c1cc(C(F)(F)F)no1` [F1824, N-(3-(2-Chloro-5-((1R,3R)-2,2-dichloro-3-(4-fluoro-3-(trifluoromethyl)phenyl)cyclopropane-1-carboxamido)benzamido)-2,6-difluorophenyl)-3-(trifluoromethyl)isoxazole-5-carboxamide], for which the pest or weed control at 50 µg/cm2 in assay [1] (setting [3]) and in assay [2] (setting [4]) was 50 to 100% in each case.
With `CC(=O)Nc1cc(F)cc(F)c1NC(=O)c1cc(NC(=O)[C@H]2[C@H](c3cc(Cl)cc(Cl)c3)C2(Cl)Cl)ccc1Cl` (relative stereo) [F1633, trans-N-(2-Acetamido-4,6-difluorophenyl)-2-chloro-5-(2,2-dichloro-3-(3,5-dichlorophenyl)cyclopropane-1-carboxamido)benzamide], the pest or weed control at 50 µg/cm2 in assay [1] (setting [5]) and in assay [2] (setting [6]) was 50 to 100% each time.
As for `O=C(Nc1c(F)ccc(NC(=O)C(F)F)c1F)c1cc(NC(=O)[C@H]2[C@H](c3cc(Cl)c(Cl)c(Cl)c3)C2(Cl)Cl)cc(F)c1Cl` [F1343, 2-Chloro-5-((1R,3R)-2,2-dichloro-3-(3,4,5-trichlorophenyl)cyclopropane-1-carboxamido)-N-(3-(2,2-difluoroacetamido)-2,6-difluorophenyl)-3-fluorobenzamide], the pest or weed control at 50 µg/cm2 in assay [1] (setting [7]) and in assay [2] (setting [8]) was 50 to 100% in each case.
For `O=C(CC(=O)C(F)(F)F)Nc1c(F)ccc(NC(=O)c2cc(NC(=O)[C@H]3[C@H](c4ccc(F)c(C(F)(F)F)c4)C3(Cl)Cl)ccc2Cl)c1F` [F1840, 2-Chloro-5-((1R,3R)-2,2-dichloro-3-(4-fluoro-3-(trifluoromethyl)phenyl)cyclopropane-1-carboxamido)-N-(2,4-difluoro-3-(4,4,4-trifluoro-3-oxobutanamido)phenyl)benzamide], the pest or weed control at 50 µg/cm2 in assay [1] (setting [3]) and in assay [2] (setting [4]) was 50 to 100% in each case.
As to `CC(=O)Nc1ccc(F)c(NC(=O)c2cc(NC(=O)[C@H]3[C@H](c4cc(Cl)c(Cl)c(Cl)c4)C3(Cl)Cl)cc(C)c2Cl)c1F` [F1524, N-(3-Acetamido-2,6-difluorophenyl)-2-chloro-5-((1R,3R)-2,2-dichloro-3-(3,4,5-trichlorophenyl)cyclopropane-1-carboxamido)-3-methylbenzamide], the pest or weed control at 50 µg/cm2 in assay [1] (setting [5]) and in assay [2] (setting [6]) was 50 to 100% in each case.
`CC(=O)Nc1cc(NC(=O)c2cc(NC(=O)[C@H]3[C@H](c4ccc(F)c(C(F)(F)F)c4)C3(Cl)Cl)cc(C)c2Cl)c(F)cc1F` [F1548, N-(5-Acetamido-2,4-difluorophenyl)-2-chloro-5-((1R,3R)-2,2-dichloro-3-(4-fluoro-3-(trifluoromethyl)phenyl)cyclopropane-1-carboxamido)-3-methylbenzamide]: the pest or weed control at 50 µg/cm2 in assay [1] (setting [5]) and in assay [2] (setting [6]) was 50 to 100% in each case.
Turning to `C=C(F)C(=O)Nc1c(F)ccc(NC(=O)c2cc(NC(=O)[C@H]3[C@H](c4ccc(Cl)c(Cl)c4)C3(Cl)Cl)ccc2Cl)c1F` [F1871, 2-Chloro-5-((1R,3R)-2,2-dichloro-3-(3,4-dichlorophenyl)cyclopropane-1-carboxamido)-N-(2,4-difluoro-3-(2-fluoroacrylamido)phenyl)benzamide], the pest or weed control at 50 µg/cm2 in assay [1] (setting [3]) and in assay [2] (setting [4]) was 50 to 100% in each case.
As for `Cc1cc(NC(=O)[C@H]2[C@H](c3ccc(F)c(C(F)(F)F)c3)C2(Cl)Cl)cc(C(=O)Nc2cc(NC(=O)C(F)F)c(F)cc2F)c1Cl` [F1500, 2-Chloro-5-((1R,3R)-2,2-dichloro-3-(4-fluoro-3-(trifluoromethyl)phenyl)cyclopropane-1-carboxamido)-N-(5-(2,2-difluoroacetamido)-2,4-difluorophenyl)-3-methylbenzamide], the pest or weed control at 50 µg/cm2 in assay [1] (setting [5]) and in assay [2] (setting [6]) was 50 to 100% throughout.
`O=C(Nc1c(F)ccc(NC(=O)c2cc(NC(=O)[C@H]3[C@H](c4ccc(F)c(C(F)(F)F)c4)C3(Cl)Cl)ccc2Cl)c1F)c1ccc(F)nc1` [F1258, N-(3-(2-Chloro-5-((1R,3R)-2,2-dichloro-3-(4-fluoro-3-(trifluoromethyl)phenyl)cyclopropane-1-carboxamido)benzamido)-2,6-difluorophenyl)-6-fluoronicotinamide]: the pest or weed control at 50 µg/cm2 in assay [1] (setting [7]) and in assay [2] (setting [8]) was 50 to 100% each time.
With `CC(CC(F)(F)F)C(=O)Nc1c(F)ccc(NC(=O)c2cc(NC(=O)[C@H]3[C@H](c4ccc(F)c(C(F)(F)F)c4)C3(Cl)Cl)ccc2Cl)c1F` (stereo partly drawn) [F1835, 2-Chloro-5-((1R,3R)-2,2-dichloro-3-(4-fluoro-3-(trifluoromethyl)phenyl)cyclopropane-1-carboxamido)-N-(2,4-difluoro-3-(4,4,4-trifluoro-2-methylbutanamido)phenyl)benzamide], the pest or weed control at 50 µg/cm2 in assay [1] (setting [3]) and in assay [2] (setting [4]) was 50 to 100% in each case.
